In patent US9145415B2, “Nitrogen-containing heterocyclic compound or salt thereof” (FUJIFILM Corporation, priority 2012, dated 2015):
Read-outs that look alike come from different tables or passages of the source.

Key:
[1] = target: T1, human FLT3 protein (FLT3 (WT)) (Homo sapiens, UniProt P36888); test: FLT3 inhibition test (FLT3 enzyme inhibition, time-resolved fluorescence of substrate peptide phosphorylation); assay type: biochemical; conditions: read-out: FLT3 (WT) enzyme inhibition activity
T1 construct: human FLT3 protein (intracellular region, 564 to 993 aa); GST; purchased Carna Biosciences; host or cells: baculovirus expression system
T1 sequence (P36888 564-993): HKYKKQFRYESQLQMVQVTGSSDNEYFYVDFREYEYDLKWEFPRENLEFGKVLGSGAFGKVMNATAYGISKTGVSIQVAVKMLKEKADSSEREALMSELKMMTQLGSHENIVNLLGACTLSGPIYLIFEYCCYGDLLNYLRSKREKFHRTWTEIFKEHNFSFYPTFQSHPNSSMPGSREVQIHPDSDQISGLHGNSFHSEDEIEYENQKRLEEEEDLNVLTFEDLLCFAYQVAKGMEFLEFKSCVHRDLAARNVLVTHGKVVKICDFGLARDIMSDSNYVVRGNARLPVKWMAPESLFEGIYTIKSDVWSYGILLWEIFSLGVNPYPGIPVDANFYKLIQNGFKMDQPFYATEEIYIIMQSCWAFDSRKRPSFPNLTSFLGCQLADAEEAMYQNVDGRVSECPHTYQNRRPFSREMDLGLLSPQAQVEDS
In short: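 Substrate peptide phosphorylation detected by time-resolved fluorescence after a 30 min kinase reaction at 25° C with 50 μM ATP (final). Beforehand, compound and FLT3 (WT, 1.2 μg) stood 15 min at 25° C in HEPES buffer pH 7.5 containing MgCl2, NaCl, BSA and DTT.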

MV4-11 cells = test: Leukemia cell proliferation inhibition test (ATPlite), MV4-11; assay type: cell-based; conditions: Homo sapiens, read-out: MV4-11 cell proliferation inhibition effect
In short: (§1)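 Molm-13 or MV4-11 cells in RPMI with 10% FBS and pen/strep, seeded at 10,000 cells per well, were exposed to serially diluted compound for 72 hours at 37° C, 5% CO2. Total cellular ATP was read by luciferase luminescence. GI50 came from sigmoid fits against the 0.1% DMSO control, in duplicate.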

Molm-13 cells = test: Leukemia cell proliferation inhibition test (ATPlite), Molm-13; assay type: cell-based; conditions: Homo sapiens, read-out: MOLM13 cell proliferation inhibition effect
In short: as §1

[2] = GST-fused human FLT3 (564 to 993 aa), ATP 50 μM
[3] = MV4-11, 72 h, MV4-11, 72 hours culture, ATPlite, GI50 per method
[4] = MOLM-13, 72 h, Molm-13, 72 hours culture, ATPlite, GI50 per method

| Structure (SMILES) | IC50 [1, 2] | IC50 (MV4-11 cells; [3]) | IC50 (Molm-13 cells; [4]) | IC50 ([1]; FLT3 (WT)) | IC50 (MV4-11 cells; MV4-11, MV4-11 cell) | IC50 (Molm-13 cells; MOLM-13, MOLM13 cell) |
| --- | --- | --- | --- | --- | --- | --- |
| COCCCNc1nc(Nc2ccnc(OC)c2)ncc1C#CCCCNC(=O)[C@@H]1C[C@H](O)CN1C(=O)/C=C/CN(C)C [Compound 9-33] | < 10 nM | < 10 nM | < 10 nM |  |  |  |
| COc1nc(Nc2ccc(F)nc2)ncc1C#C[C@@H]1CCC[C@H](NC(=O)[C@H](C)N(C)C(=O)/C=C/CN(C)C)C1 [Compound 15-2] | < 10 nM | < 10 nM | 10 to 100 nM |  |  |  |
| CCCNc1nc(Nc2ccc(C(N)=O)cc2)ncc1-c1ccc(CCNC(=O)CNC(=O)/C=C/CN(C)C)cc1 [Compound 16-3] | < 10 nM | 100 to 1000 nM | 100 to 1000 nM |  |  |  |
| CCNc1nc(Nc2ccc(C#N)cc2)ncc1C#C[C@@H]1CCC[C@H](NC(=O)[C@H](C)N(C)C(=O)/C=C/CN(C)C)C1 [Compound 21-28] | < 10 nM | < 10 nM | < 10 nM |  |  |  |
| CCCNc1nc(Nc2ccc(C(N)=O)cc2)ncc1C#Cc1cccc(NCCNC(=O)/C=C/CN(C)C)c1 [Compound 8-5] | < 10 nM | 10 to 100 nM | 10 to 100 nM |  |  |  |
| CCCNc1nc(NCCc2ccncc2)ncc1C(=O)NCCCNC(=O)CNC(=O)/C=C/CN(C)C [Compound 2-24] | < 10 nM | 10 to 100 nM | 10 to 100 nM |  |  |  |
| CCCN(C)c1nc(Nc2cccc(C#N)c2)ncc1C#CCCCNC(=O)[C@H](C)N(C)C(=O)/C=C/CN(C)C [Compound 9-3] | < 10 nM | < 10 nM | 10 to 100 nM |  |  |  |
| CN(C)C/C=C/C(=O)N1CCC[C@H]1C(=O)N[C@H]1C[C@@H](C#Cc2cnc(Nc3cccc(F)c3)nc2NC2CC2)C1 [Compound 15-11] | < 10 nM | < 10 nM | < 10 nM |  |  |  |
| CCCNc1nc(Nc2ccc(C(N)=O)cc2)ncc1CCCCCNC(=O)CNC(=O)/C=C/CN(C)C [Compound 7-29] | < 10 nM | 10 to 100 nM | 100 to 1000 nM |  |  |  |
| CCCOc1nc(Nc2ccc(C#N)cc2)ncc1C#C[C@@H]1CCC[C@H](NC(=O)[C@H](C)N(C)C(=O)/C=C/CN(C)C)C1 [Compound 21-13] | < 10 nM | < 10 nM | < 10 nM |  |  |  |
| C[C@@H](C(=O)NCCCC#Cc1cnc(Nc2ccc(C#N)cc2)nc1-n1cccn1)N(C)C(=O)/C=C/CN(C)C [Compound 20-2, (S,E)-N-(1-((5-(2-((4-cyanophenyl)amino)-4-(1H-pyrazol-1-yl)pyrimidin-5-yl)-4-pentyn-1-yl)amino)-1-oxopropan-2-yl)-4-(dimethylamino)-N-methyl-2-butenamide] | 10 to 100 nM | 10 to 100 nM | 10 to 100 nM |  |  |  |
| C[C@@H](C(=O)N[C@H]1CCC[C@@H](C#Cc2cnc(Nc3ccnc(F)c3)nc2NC2CC2)C1)N(C)C(=O)/C=C/CN(C)C [Compound 14-2] | < 10 nM | < 10 nM | < 10 nM |  |  |  |
| C[C@@H](C(=O)N[C@H]1CCC[C@@H](C#Cc2cnc(Nc3cccc(C#N)c3)nc2NC2CC2)C1)N(C)C(=O)/C=C/CN(C)C [Compound 21-47] |  |  |  | < 10 nM | < 10 nM | < 10 nM |
| CCCNc1nc(Nc2cc(C)no2)ncc1C#CCCCNC(=O)[C@@H]1CCCN1C(=O)/C=C/CN(C)C [Compound 7-79] | < 10 nM | < 10 nM | < 10 nM |  |  |  |
| COCCCNc1nc(Nc2ccc(F)cc2)ncc1C#CCCCNC(=O)[C@H](C)N(C)C(=O)/C=C/CN(C)C [Compound 10-26] | < 10 nM | < 10 nM | 10 to 100 nM |  |  |  |
| C[C@@H](C(=O)NCCCC#Cc1cnc(Nc2ccc(C#N)cc2)nc1NC1CCCC1)N(C)C(=O)/C=C/CN(C)C [Compound 10-48] | < 10 nM | < 10 nM | < 10 nM |  |  |  |
| CCCNc1nc(NC)ncc1C#CCCCNC(=O)[C@H](C)N(C)C(=O)/C=C/CN(C)C [Compound 11-1, (S,E)-4-(dimethylamino)-N-methyl-N-(1-((5-(2-(methylamino)-4-(propylamino)pyrimidin-5-yl)-4-pentyn-1-yl)amino)-1-oxopropan-2-yl)-2-butenamide] | 10 to 100 nM | 10 to 100 nM | 10 to 100 nM |  |  |  |
| CCCNc1nc(Nc2ccc(C(=O)N(C)C)cc2)ncc1C#CCCCNC(=O)[C@H](C)N(C)C(=O)/C=C/CN(C)C [Compound 7-15] | 10 to 100 nM | < 10 nM | < 10 nM |  |  |  |

| Structure (SMILES) | IC50 [1, 2] | IC50 (MV4-11 cells; [3]) | IC50 (Molm-13 cells; [4]) | IC50 ([1]; FLT3 (WT)) | IC50 (MV4-11 cells; MV4-11, MV4-11 cell) | IC50 (Molm-13 cells; MOLM-13, MOLM13 cell) |
| --- | --- | --- | --- | --- | --- | --- |
| C[C@@H](C(=O)NCCCC#Cc1cnc(Nc2ccc(F)c(F)c2)nc1NC1CC1)N(C)C(=O)/C=C/CN(C)C [Compound 21-2] | < 10 nM | < 10 nM | < 10 nM |  |  |  |
| CNc1nc(Nc2ccc(F)cc2)ncc1C#C[C@H]1C[C@@H](NC(=O)[C@H](C)N(C)C(=O)/C=C/CN(C)C)C1 [Compound 13-19, (E)-4-(Dimethylamino)-N—((S)-1-(((1S,3R)-3-((2-((4-fluorophenyl)amino)-4-(methylamino)pyrimidin-5-yl)ethynyl)cyclobutyl)amino)-1-oxopropan-2-yl)-N-methyl-2-butenamide] | < 10 nM | < 10 nM | < 10 nM |  |  |  |
| CNc1nc(Nc2cccc(C#N)c2)ncc1C#CCCCNC(=O)[C@@H]1CCCN1C(=O)/C=C/CN(C)C [Compound 7-76] | < 10 nM | < 10 nM | < 10 nM |  |  |  |
| CCCNc1nc(NCCc2ccncc2)ncc1C(=O)Nc1cccc(NC(=O)CNC(=O)/C=C/CN2CC(C)NC(C)C2)c1 (stereo not drawn) [Compound 2-15] | < 10 nM | 100 to 1000 nM | 100 to 1000 nM |  |  |  |
| CCCNc1nc(Nc2ccc(C(N)=O)cc2)ncc1C(=O)Nc1cccc(NC(CNC(=O)/C=C/CN(C)C)C(F)(F)F)c1 (stereo not drawn) [Compound 3-17] | < 10 nM | 100 to 1000 nM | > 1000 nM |  |  |  |
| CC[C@@H](C(=O)NCCCC#Cc1cnc(Nc2ccc(F)nc2)nc1NCC(F)(F)F)N(C)C(=O)/C=C/CN(C)C [Compound 10-35] | < 10 nM | < 10 nM | 10 to 100 nM |  |  |  |
| CCCNc1nc(Nc2ccc3c(OC)n[nH]c3c2)ncc1C#CCCCNC(=O)[C@H](C)N(C)C(=O)/C=C/CN(C)C [Compound 22-65] |  |  |  | < 10 nM | < 10 nM | < 10 nM |
| C=CC(=O)N(C)[C@@H](C)C(=O)NCCCNC(=O)c1cnc(Nc2ccc(C(N)=O)cc2)nc1NCCC [Compound 5-3] | < 10 nM | 10 to 100 nM | 10 to 100 nM |  |  |  |
| CCCNc1nc(NCCc2ccncc2)ncc1C(=O)Nc1ccc(C)c(NC(=O)CNC(=O)/C=C/CN(C)C)c1 [Compound 1-8] | < 10 nM | < 10 nM | 10 to 100 nM |  |  |  |
| CCCNc1nc(Nc2cccc(F)c2)ncc1C#CCCCNC(=O)[C@H](CC(C)C)N(C)C(=O)/C=C/CN(C)C [Compound 7-11] | < 10 nM | 10 to 100 nM | 10 to 100 nM |  |  |  |
| C[C@@H](C(=O)N[C@H]1CCC[C@@H](C#Cc2cnc(Nc3ccc(C#N)cc3)nc2NC2CC2)C1)N(C)C(=O)/C=C/CN(C)C [Compound 7-35] | < 10 nM | < 10 nM | < 10 nM |  |  |  |
| C[C@@H](C(=O)NCCCC#Cc1cnc(Nc2cccc(F)c2)nc1NCC1CC1)N(C)C(=O)/C=C/CN(C)C [Compound 21-4] | < 10 nM | < 10 nM | 10 to 100 nM |  |  |  |
| CNc1nc(Nc2ccc(C#N)cc2)ncc1C#CCCCNC(=O)[C@@H]1C[C@H](F)CN1C(=O)/C=C/CN(C)C [Compound 7-87, (2S,4S)—N-(5-(2-((4-Cyanophenyl)amino)-4-(methylamino)pyrimidin-5-yl)-4-pentyn-1-yl)-1-((E)-4-(dimethylamino)-2-butenoyl)-4-fluoropyrrolidine-2-carboxamide] | < 10 nM | < 10 nM | < 10 nM |  |  |  |
| CCNc1nc(Nc2ccc3c(cnn3C)c2)ncc1C#CCCCNC(=O)[C@H](C)N(C)C(=O)/C=C/CN(C)C [Compound 10-53] | < 10 nM | < 10 nM | < 10 nM |  |  |  |
| CNc1nc(Nc2ccnc(OC)c2)ncc1C#CCCCNC(=O)[C@H](C)N(C)C(=O)/C=C/CN(C)C [Compound 9-39] | < 10 nM | < 10 nM | < 10 nM |  |  |  |
| CCCNc1nc(Nc2ccc(C(N)=O)cc2)ncc1C#CCCCNC1(CNC(=O)/C=C/CN(C)C)CCOCC1 [Compound 8-12] | < 10 nM | 10 to 100 nM | 10 to 100 nM |  |  |  |
| CCCNc1nc(Nc2cccc(C#N)c2)ncc1C(=O)Nc1cccc(NC(=O)[C@H](C)N(C)C(=O)/C=C/CN(C)C)c1 [Compound 6-3, (S,E)-2-((3-cyanophenyl)amino)-N-(3-(2-(4-(dimethylamino)-N-methyl-2-butenamido)propanamido)phenyl)-4-(propylamino)pyrimidine-5-carboxamide] | < 10 nM | 10 to 100 nM | 10 to 100 nM |  |  |  |
